Laboratory results published in paper PMC12363179, “Mapping the sialic acid-binding sites of LuIII and H-1 parvovirus” (Journal of Virology, 2025).

Legend:
[1] = biological target: LuIII virus-like particle (VLP) composed of VP2, the major capsid protein (parvovirus LuIII); experiment: cryo-EM structure; VLPs of VP2 in 10 mM Tris-HCl, 500 mM NaCl, 8 mM CaCl2, 2 mM MgCl2, pH 7.5, with or without glycan (s(LN)3 or s(Le^x)2); icosahedral reconstruction in cisTEM, 60mer models fitted
MVM / MVMp VLP (VP2) = biological target: T1, MVM / MVMp VLP (VP2) (Murine minute virus strain MVM prototype, UniProt P03137); experiment: Max-Planck glycan microarray, fluorescence; type: binding; conditions: immobilised glycan; DyLight488-labelled VLP 0.4 mg/mL, PBS-MK (MgCl2, KCl), 4 °C overnight
T1 construct: VP2-only virus-like particle without DNA, T=1 icosahedral 60-mer, baculovirus/Sf9; DyLight488-labelled
From the text: Max-Planck glycan microarray, fluorescence on MVM / MVMp VLP (VP2)

LuIII VLP (VP2) [2] = biological target: T2, LuIII VLP (VP2) (LuIII virus, UniProt P36310); experiment: Max-Planck glycan microarray, fluorescence; type: binding; conditions: immobilised glycan; DyLight488-labelled VLP 0.1 mg/mL, PBS-MK (MgCl2, KCl), 4 °C overnight
T2 construct: VP2-only virus-like particle without DNA, T=1 icosahedral 60-mer, baculovirus/Sf9; residues 37-587 modelled
From the text: Max-Planck glycan microarray, fluorescence on LuIII VLP (VP2)

[3] = biological target: H-1 parvovirus virus-like particle (VLP) composed of VP2, the major capsid protein (H-1 parvovirus); experiment: cryo-EM structure; VLPs of VP2 in 10 mM Tris-HCl, 500 mM NaCl, 8 mM CaCl2, 2 mM MgCl2, pH 7.5, with or without glycan (s(LN)3 or s(Le^x)2); icosahedral reconstruction in cisTEM, 60mer models fitted
LuIII VLP (VP2) [4] = biological target: T2, LuIII VLP (VP2); experiment: CFG glycan microarray v4.[…], antibody fluorescence; type: binding; conditions: immobilised glycan; unlabelled VLP 0.2 mg/mL, PBS, room temperature, 1 h

| Molecule | RFU (MVM / MVMp VLP (VP2)) [RFU] | RFU (LuIII VLP (VP2) [2]) [RFU] | RFU (LuIII VLP (VP2) [4]) | further results |
| --- | --- | --- | --- | --- |
| LuIII virus-like particle (VLP) composed of VP2, the major capsid protein (natural protein) | – | – | – | stoichiometry N [1]: 60 |
| Neu5Acα2-6Gαlβ1-4GlcNAc-6-sulfαteβ-AH [compound 10] | 203 ± 36 | – | – | – |
| Fucα1-3(Neu5Acα2-3Gαlβ1-4)GlcNAcβ1-3Gαlβ1-4Glcβ-AH [compound 7] | – | 151 ± 23 | – | – |
| H-1 parvovirus virus-like particle (VLP) composed of VP2, the major capsid protein (natural protein) | – | – | – | stoichiometry N [3]: 60 |
| CC(=O)N[C@H]1[C@H](O[C@H]2[C@@H](O)[C@@H](CO)O[C@@H](O[C@H]3[C@H](O)[C@@H](CO)O[C@@H](OCCN)[C@@H]3NC(C)=O)[C@@H]2O)O[C@H](CO)[C@@H](O[C@@H]2O[C@H](CO)[C@H](O)[C@H](O[C@]3(C(=O)O)C[C@H](O)[C@@H](NC(C)=O)[C@H]([C@H](O)[C@H](O)CO)O3)[C@H]2O)[C@@H]1O [compound 293, Neu5Acα2-3Galβ1-4GlcNAcβ1-3Galβ1-3GlcNAcβ-Sp0] | – | – | 728 ± 180 RFU | – |
| CC(=O)N[C@H]1[C@H](OCCCN)O[C@H](CO)[C@@H](O[C@@H]2O[C@H](CO)[C@H](O)[C@H](O[C@]3(C(=O)O)C[C@H](O)[C@@H](NC(C)=O)[C@H]([C@H](O)[C@H](O)CO)O3)[C@H]2O)[C@@H]1O[C@@H]1O[C@@H](C)[C@@H](O)[C@@H](O)[C@@H]1O [compound 253, Neu5Acα2-3Galβ1-4(Fucα1-3)GlcNAcβ-Sp8] | – | – | 1,685 ± 423 RFU | – |
| Neu5Acα2-6Gαlβ1-4Glcβ-AH [compound 8] | – | 105 ± 13 | – | – |
| Neu5Acα2-3Gαlβ1-4Glcβ-AH [compound 9] | 109 ± 102 | 267 ± 44 | – | – |
| CC(=O)N[C@H]1[C@H](O[C@H]2[C@@H](O)[C@@H](CO)O[C@@H](O[C@H]3[C@H](O)[C@@H](O)[C@H](OCCCN)O[C@@H]3CO)[C@@H]2O)O[C@H](CO)[C@@H](O)[C@@H]1O[C@@H]1O[C@H](CO)[C@H](O)[C@H](O)[C@H]1O[C@@H]1O[C@@H](C)[C@@H](O)[C@@H](O)[C@@H]1O [compound 65, Fucα1-2Galβ1-3GlcNAcβ1-3Galβ1-4Glcβ-Sp8] | – | – | 601 ± 93 RFU | – |
| Neu5Acα2-3Gαlβ1-4GlcNAcβ1-3Gαlβ1-4Glcβ-AH [compound 6] | 153 ± 24 | 106 ± 37 | – | – |
